# Laboratory results reported in patent US11419876B2, “Mirtazapine as a pre-shipping inhibitor of bovine respiratory disease” (Iowa State University Research Foundation, Inc., priority 2019, dated 2022).
# Tested on: BRD
# Assay: Pre-shipment mirtazapine treatment for BRD prevention at the feedlot
# Assay type: in vivo, ranch heifer calves
# Experimental: An initial study was performed to confirm BRD prevention at the feedlot using a pre-shipment treatment comprising mirtazapine. A total of 24 ranch heifer calves that were recently weaned (mixed breeds, approximately 350 lbs, 6 months old) were randomly assigned to two different treatment groups. One group was fed mirtazapine in a standard starter feed at 5 mg/kg/day as a pre-shipment treatment. The treatment dosage was extrapolated from feline dosing. After one week, calves were shipped from southern Missouri to Iowa. For the next […], calves were monitored for BRD which was ascribed to any animal showing respiratory signs (i.e. coughing, runny nose or eyes, labored or rapid breathing) plus a rectal temperature >104° F. BRD(+) calves were then treated with florfenicol+flunixin. Calves requiring a second treatment received ceftiofur plus tulathromycin, while the third treatment consisted of enrofloxacin, if needed. At the end of the study calves were sold as seedstock and were kept out of the food chain.
# The efficacy of the mirtazapine as a pre-shipment treatment for preventing BRD was assessed by various clinical parameters, as shown in Table 1 and FIG. 1.
# The % morbidity equals the % of calves that developed BRD in the first six weeks. The % mortality equals the percent of BRD(+) calves that died of the disease. The % retreats equals the % of BRD(+) calves that required >2 treatments for BRD once developed. The data are compared to Control calves that were not fed mirtazapine prior to shipping to a feedlot (“None”).
# [1] = fed in starter feed at 5 mg/kg/day for one week pre-shipment, BRD(+) calves
structure (smiles),measurement,setting,value
"CN1CCN2c3ncccc3Cc3ccccc3C2C1 (stereo not drawn) [Mirtazapine, 1,2,3,4,10,14b-hexahydro-2-methyl-pyrazino[2,1-a]pyrido[2,3-c] benzazepine]",% Morbidity (% of calves that developed BRD),"fed in starter feed at 5 mg/kg/day for one week pre-shipment, % of calves that developed BRD in the first six weeks",42%
same,% Mortality (percent of BRD(+) calves that died of the disease),[1],0%
same,% Retreats (% of BRD(+) calves that required >2 treatments for BRD),[1],11%
same,Avg. days to onset BRD,"fed in starter feed at 5 mg/kg/day for one week pre-shipment, after shipping to feedlot",7.3 days
same,Avg. Rectal Temp at BRD,"fed in starter feed at 5 mg/kg/day for one week pre-shipment, at clinical presentation with BRD",104.2 degrees F.
same,"Effect on morbidity, mortality and severity of BRD (in words)","fed to calves for one week prior to shipping, versus control calves not fed mirtazapine","reduces the morbidity, mortality, and severity"
